The test system of the assay is Escherichia coli AB1157 ΔacrB. Nature of the assay: MIC assay (microbroth dilution). It counts as cell-based. From the text:
• Strains and Reagents. The following strains were obtained from the Keio collection (Baba, et al.: Construction of Escherichia coli K-12 in-frame, single-gene knockout mutants: the Keio collection. In Mol Syst Biol, vol. 2, pp. 2006 0008, (2006)): JW0451 (ΔacrB::kan), JW5503 (ΔtolC::kan), JW3234 (ΔacrF::kan), JW2661 (ΔemrB::kan), JW0863 (ΔmacB::kan). The deletion mutations in each of these strains were transferred to AB1157 using P1 phage transduction (see Table 1). The construction of the E. coli cell-based reporter strain (SOS-XXX) that was used for high throughput screening is described in detail in the supplementary information. […] Irgasan was a generous gift from Ciba Speciality Chemicals, Inc. (High Point, N.C.). Hoechst 33342 (H33342) was purchased from Molecular Probes (Eugene, Oreg.). […] Luria Broth (Miller) and agar were purchased as prepared dehydrated media from Becton Dickenson (Franklin Lakes, N.J.). The compound libraries used in high-throughput screens were purchased from Chembridge (San Diego, Calif.), ChemDiv (San Diego, Calif.), and TimTec (Newark, Del.). MBX2319 was synthesized by Microbiotix, Inc. • Antibacterial Activity Assays. The minimal inhibitory concentration (MIC) of antibacterial agents and biocides were determined using the microbroth dilution method essentially as described in the CLSI protocol M7-A7 (CLSI: Method for dilution antimicrobial susceptibility testing for bacteria that grow aerobically; Approved standard-document M7-A7. In Clinical and Laboratory Standards Institute document M7-A7, Clinical and Laboratory Standards Institute, Wayne, Pa., (2006)), with the following exceptions. LB media was used instead of MHB. […] The final concentration of DMSO in each assay was 2%. […] MIC assays were performed in triplicate and the geometric mean was calculated. Checkerboard MIC assays using an EPI and an antibacterial agent were performed essentially as described (Pillai, et al.: Antimicrobial Combinations. In Antibiotics in Laboratory Medicine, ed. by V. Lorian, pp. 365-440, Lippincott Williams & Wilkins, Philadelphia, Pa., (2005)), with the same modifications used for the MIC assays described above. • Time-Kill Assays. Killing curve assays were performed essentially as described (Pillai, et al.: Antimicrobial Combinations. In Antibiotics in Laboratory Medicine, ed. by V. Lorian, pp. 365-440, Lippincott Williams & Wilkins, Philadelphia, Pa., (2005)). Exponential bacterial cultures grown in LB were diluted to a cell density of ˜1×10^7 in LB followed by addition of CIP and/or an EPI. Viability was monitored over 2-4 hours by making serial dilutions in saline and spotting 5 μl of each dilution onto the surface of an LB agar plate in triplicate. Colonies were counted after the plates were incubated at 37° C. for 16-18 hr, colony forming units (CFU) per ml were calculated, and the average and standard deviation for the three replicates was determined. For treatments that decreased CFU/ml below the limit of detection for the spot plating method, the 100 μl samples were diluted into 5 ml LB top agar, were poured onto LB agar plates, and incubated for 18 hr at 37° C. To calculate the fraction of the control for each sample, the average CFU/ml values for treated samples were divided by those from the same sample at 0 h (time=0). Each experiment was repeated at least three times, and a representative experiment is shown. • H33342 Accumulation Assay. The rate of accumulation of the fluorescent dye Hoechst 33342 (H33342), which is a substrate of a wide variety of bacterial efflux pumps (van den Berg van Saparoea, et al., Biochemistry, vol. 44, pp. 16931-16938, (2005)), can be used to estimate the activity of the major efflux pumps in E. coli and many other bacterial species. The H33342 accumulation assay was used to evaluate the effect of EPIs on the activity of the AcrAB-TolC efflux pump in several bacterial species essentially as described (Coldham, et al., J Antimicrob Chemother, vol. 65, pp. 1655-1663, (2010)). […]
Background: In broth dilution the organism is exposed to a series of concentrations in liquid medium.

In the case of `CCN1CCN(C(=O)N[C@@H](C(=O)N[C@@H]2C(=O)N3[C@@H]2SC(C)(C)[C@@H]3C(=O)O)c2ccccc2)C(=O)C1=O` [Piperacillin, piperacillin], the MIC (Escherichia coli, read-out: MICs (μg/ml) ΔacrB None) stood at 0.25 µg/mL. Moreover, the “MIC Ratio ΔacrB” value (MIC WT/MIC ΔacrB) stood at 16.

Source of the values: patent US9540389B2, “Antimicrobial potentiators” (priority 2013, dated 2017).
